Measurements: BindingDB's records for doi:10.1016/j.ejmech.2019.111646 (Hangzhou Xixi Hospital, 2019)

Columns and labels:
[1] = Inhibition of 20S proteasome beta 1c (unknown origin) after 1 hr by fluorescence based assay
[2] = Inhibition of 20S proteasome beta 2c (unknown origin) after 1 hr by fluorescence based assay

For `COc1ccc([C@@H](O)[C@H](NC(=O)[C@H](C)NC(=O)CN2CCOCC2)C(=O)N[C@@H](CC2=CCCC2)C(=O)[C@@]2(C)CO2)cc1` [Kzr-616], the IC50 [1] was 0.43 µM and the IC50 [2] was 0.028 µM.
